Results taken from patent US20240109917A1 (ACTELION PHARMACEUTICALS LTD, priority 2020, published 2024).

Assays:
[1] = target: His6-TEV-PDGFRβ (557-1016) (Homo sapiens (Human), UniProt P09619); experiment: PDGFRβ HTRF Assay; format: biochemical; conditions: read-out: PDGFR HTRF IC50
Protocol: Instrumentation: a. Compound liquid handling: LabCyte Echo; b. Reagent liquid handling: Thermo Scientific Multidrop Combi; c. BMG PHERAStar multilabel plate reader.
Protein Reagent: His6-TEV-PDGFRβ Protein Prep prepared at Accelagen.
(§1) II. Methods and Procedures
Assay buffer stock solution, contains 50 mM Hepes, 10 mM MgCl2, 1 mM EGTA, and 0.01% Brij-35, 0.01% ovalbumin, 2 mM DTT at pH 7.5, in molecular biology grade water. Store at room temperature.
DTT, 2 M in molecular biology grade water, store at −20° C. in aliquots.
Ovalbumin, 10% or 100 mg/mL, prepare fresh on experimental day.
PDGFRβ, 116 μM (PDGFRb_08 Prep 02), produced at Accelagen. Store at −80° C. in aliquots.
TK-biotin peptide, […] in molecular biology grade water, store at −20° C. in aliquots.
ATP, 100 mM in molecular biology grade water, store at −20° C. in aliquots.
HTRF KinEASE-TK kit: Allow the contents of the Cisbio kit to warm up to room temperature before use. This kit contains HTRF detection buffer, TK-Antibody labeled with Eu^3+-cryptate, TK-substrate biotin and Streptavidin-XL665.
TK Substrate-Biotin, reconstitute 500 μg lyopholized with 574 μL molecular biology grade water to prepare a 500 μM stock; After use, aliquot the rest and store at −20° C.
TK Antibody-Cryptate, reconstitute lyophilized with 1 mL of molecular biology grade water (100× solution) then add 99 mL detection buffer to prepare a ready to use TK-antibody-cryptate solution; the concentration of the TK-antibody-cryptate reagent is not known. After use, aliquot the rest and store at −20° C.
Streptavidin-XL665, reconstitute 3 mg lyophilized with 3 mL molecular biology grade water to prepare a 1 mg/mL or 16.67 μM stock; MW=60 kDa; After use, aliquot the rest and store at −20° C.
(§2) Freshly Prepared Solutions:
Assay buffer. Dilute 5× Kinase buffer 5-fold with molecular biology grade water and add DTT to 2 mM and ovalbumin to 0.1 mg/mL (or 0.01%).
2× protein solution. Make a working solution of […] PDGFRβ in assay buffer. Keep on ice until use to maintain enzyme stability.
2× substrate solution. Make a working solution of 1.6 mM ATP and 1 μM TK-substrate biotin peptide in assay buffer.
3× quench/detection solution. Make a working solution of 0.1875 μM SA-XL665 and the TK-antibody cryptate diluted by 12 of total quench/detection volume in assay buffer.
Keep final streptavidin/biotin ratio at 1 to 8.
Example of 3× quench/detection solution preparation: 8 mL total volume.
TK antibody-cryptate in detection buffer—4000 μL
The kinase reaction is stopped by the addition of the detection reagents which contain EDTA (detection step).
Assay in white ProxiPlate 384-well
Step 1. Dispensing inhibitors/DMSO and low control: Using the ECHO 555 acoustic dispenser, spot desired compound serial dilutions in DMSO, NEAT DMSO to represent the uninhibited enzyme control, and 10 μM final [imatinib] to the represent the 100% inhibited enzyme control
Step 2. PDGFRβ E+I pre-incubation: Add 2 μL 2× protein solution to columns 1-24 using the Multidrop Combi. Centrifuge at 1000 rpm for 1 min. Incubate 30 min at RT
Step 2. Enzymatic reaction: Add 2 μL substrate solution to columns 1-24 to initiate the reaction using the Multidrop Combi; cover/seal the assay plate to reduce evaporation. Centrifuge at 1000 rpm for 1 min. Incubate at room temperature for 3 hours.
Step 3. Quench/Detection: Add 2 μl 3× quench/detection solution to columns 1-24 using the Multidrop Combi; cover/seal the plate. Centrifuge 1 min 1000 rpm. Incubate at RT for 60 min. Read the plate in PHERAstar (or similar instrument) on HTRF setting at excitation 337 nm—dual emission—665/620 nm ratio.
(§3) III. Calculations and Formulas
HTRF ratio values calculated by the instrument (Ratio is acceptor counts/donor counts*10,000) is exported from the plate reader and used in data analysis. […] Assay statistics can include Robust Z′ and Signal to Background.
% Inhibition Calculation: Percent inhibition will be calculated for sample wells based on the equation: […]

PDGFRβ = PDGFRβ (Rattus norvegicus (Rat), UniProt Q05030); experiment: PDGFRβ Cellular Assay (PDGFRb P-Y751 HTRF in A10 cells stimulated with PDGF-BB); format: cell-based; conditions: PDGFR Cellular IC50
Protocol: as §1
Cell Culture and Preparation: Cells are cultured according to ATCC procedure (5) with the addition of the antibiotic penicillin-streptomycin. If working from frozen, cells should be thawed according to ATCC procedure. Depending on the cell density of frozen vial, cells will need time to recover from thaw. An 80% confluent T75 flask should be enough for one 384 well plate.
Stock Solutions: Rat PDGFBB. A 100 ug/mL stock is prepared by reconstituting 50 ug in 500 uL of 4 mM HCl and 0.1% BSA. It can be stored for a month at 4° C., or aliquoted out and frozen in the −20/−80° C. to avoid multiple free-thaw cycles.
as §2
1× Cisbio cell lysis buffer. The cell lysis buffer is diluted 4-fold with molecular grade water. The blocking agent is then diluted 25-fold in the diluted lysis buffer.
Antibody solutions. Equal amounts d2 and cryptate antibody are diluted 20-fold in detection buffer.
Rat PDGFBB. A working stock of 100 ng/mL is created from the stock solution in 10% FBS culture media.
Step 1: Plating Cells: Media from the A10 cell flask is aspirated. The cells are rinsed with PBS and then trypsinized to disperse the cell layer. The cells are then pelleted are resuspended to 1.25e5 cells/mL. […] Plates are covered and placed in the incubator (37° C. 5% CO2) overnight to allow cells to adhere.
Step 2: Compound Dispense: Approximately 18 hours after plating, dispense 40 nL compound onto cells using Echo. Column 12 is the neutral control DMSO, column 24 is the inhibitor control 10 mM Imatinib (10 uM final assay concentration). The plate is returned to the incubator for 3 hours.
After 10 minutes the media is removed by flicking the plate.
Step 4: Cell lysis and antibody addition: 20 uL lysis buffer per well is added to the plate via Tempest. 5 uL antibody solution is added per well via the Tempest. The plate is placed on the shaker at 230 rpm for 1 hour at room temperature.
Step 5: Detection: The plate is read using the HTRF module on the BMG Pherastar. Data is analyzed using Genedata Screener.
as §3
% Inhibition: % Inhibition=(NC−sample)/(NC−PC)*100 where NC is the mean of negative control (reactions without inhibitor), and PC is the mean of positive control (10 μM imatinib).
IC50 values are determined from a 4-parameter fit, using the following equation: Y=Bottom+(Top−Bottom)/(1+10((Log IC50−X)*Hill slope)), where X=log10 of the compound concentration; top can be defined by PC; bottom defined by NC.

VEGFR2, unphosphorylated = VEGFR2, unphosphorylated (Homo sapiens (Human), UniProt P35968); experiment: VEGFR ADP GLO Assay; format: biochemical
Protocol: as §1
Assay buffer stock contains 50 mM HEPES pH7.5, 10 mM MgCl2, 0.01% Brij-35, and 1 mM EGTA.
Unphosphorylated VEGFR2. […] Store at −80° C. in aliquots.
Sonicate 10 mg/ml Srctide solution for 10 minutes and then vacuum filter.
Freshly Prepared Solutions
2× kinase solution. Make a working solution of 10 nM unphosphorylated VEGFR2 in Assay buffer. Vacuum filter 2× kinase solution prior to running assay. Keep on ice until use.
2× substrate/ATP solution. Make a working solution of 2 mg/mL srctide and 2.4 mM ATP in Assay buffer. Keep on ice until use.
Step 1. Dispensing inhibitors/controls: Using Echo, dispense 10 nL/well compound serial dilutions in DMSO to columns 1-22 (in 384-well plates) or columns 1-44 (in 1536-well plates). Dilution series=11 pt, 3-fold dilutions. The top compound concentration in the source plate is 4 mM. The top compound concentration in the assay plate is 10 uM. Using Echo, dispense 10 nl/well DMSO to column 23 (in 384-well plates) or columns 45-47 (in 1536-well plates). […] These wells will serve as positive control wells.
Step 2. Pre-incubation of inhibitors with kinase: Add 2 μL/well 2× kinase solution. Centrifuge at 1000 rpm for 1 min. Incubate at room temperature for 30 min.
Step 3. Kinase cascade reaction: Add 2 μL/well 2× substrate/ATP solution to initiate kinase reactions. Centrifuge at 1000 rpm for 1 min. Incubate at room temperature for 180 min.
Final concentrations of components in the assay:
Step 4. Quench: Add 2 uL/well ADP Glo Reagent+0.05% CHAPS. Centrifuge at 1000 rpm for 1 min; Incubate at room temperature for one hour.
Step 5. Detection: Add 2 uL/well Kinase Detection Reagent+0.05% CHAPS. Centrifuge at 1000 rpm for 1 min; Incubate at room temperature for 1 hour; Read Luminescence on a plate reader.
as §3
IC50 values are determined from a 4-parameter fit, using the following equation: Y=Bottom+(Top−Bottom)/(1+10^(Log IC50-X)*Hill slope) where X=log10 of the compound concentration; top can be defined by PC; bottom defined by NC.

Chain of His6-TEV-PDGFRβ (557-1016) (P09619 557-1016): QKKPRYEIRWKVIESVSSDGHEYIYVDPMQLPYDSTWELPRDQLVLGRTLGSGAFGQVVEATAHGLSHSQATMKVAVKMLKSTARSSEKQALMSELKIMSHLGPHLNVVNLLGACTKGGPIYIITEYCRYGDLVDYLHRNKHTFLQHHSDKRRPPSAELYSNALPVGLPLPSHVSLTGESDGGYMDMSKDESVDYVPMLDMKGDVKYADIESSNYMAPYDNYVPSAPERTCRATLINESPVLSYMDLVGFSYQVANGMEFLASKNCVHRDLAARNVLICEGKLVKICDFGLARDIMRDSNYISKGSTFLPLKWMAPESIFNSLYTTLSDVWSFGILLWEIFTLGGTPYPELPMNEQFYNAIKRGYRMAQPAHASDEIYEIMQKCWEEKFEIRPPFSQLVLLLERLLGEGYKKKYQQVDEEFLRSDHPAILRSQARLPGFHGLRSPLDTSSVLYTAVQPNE
Chain of PDGFRβ (Q05030 32-1097): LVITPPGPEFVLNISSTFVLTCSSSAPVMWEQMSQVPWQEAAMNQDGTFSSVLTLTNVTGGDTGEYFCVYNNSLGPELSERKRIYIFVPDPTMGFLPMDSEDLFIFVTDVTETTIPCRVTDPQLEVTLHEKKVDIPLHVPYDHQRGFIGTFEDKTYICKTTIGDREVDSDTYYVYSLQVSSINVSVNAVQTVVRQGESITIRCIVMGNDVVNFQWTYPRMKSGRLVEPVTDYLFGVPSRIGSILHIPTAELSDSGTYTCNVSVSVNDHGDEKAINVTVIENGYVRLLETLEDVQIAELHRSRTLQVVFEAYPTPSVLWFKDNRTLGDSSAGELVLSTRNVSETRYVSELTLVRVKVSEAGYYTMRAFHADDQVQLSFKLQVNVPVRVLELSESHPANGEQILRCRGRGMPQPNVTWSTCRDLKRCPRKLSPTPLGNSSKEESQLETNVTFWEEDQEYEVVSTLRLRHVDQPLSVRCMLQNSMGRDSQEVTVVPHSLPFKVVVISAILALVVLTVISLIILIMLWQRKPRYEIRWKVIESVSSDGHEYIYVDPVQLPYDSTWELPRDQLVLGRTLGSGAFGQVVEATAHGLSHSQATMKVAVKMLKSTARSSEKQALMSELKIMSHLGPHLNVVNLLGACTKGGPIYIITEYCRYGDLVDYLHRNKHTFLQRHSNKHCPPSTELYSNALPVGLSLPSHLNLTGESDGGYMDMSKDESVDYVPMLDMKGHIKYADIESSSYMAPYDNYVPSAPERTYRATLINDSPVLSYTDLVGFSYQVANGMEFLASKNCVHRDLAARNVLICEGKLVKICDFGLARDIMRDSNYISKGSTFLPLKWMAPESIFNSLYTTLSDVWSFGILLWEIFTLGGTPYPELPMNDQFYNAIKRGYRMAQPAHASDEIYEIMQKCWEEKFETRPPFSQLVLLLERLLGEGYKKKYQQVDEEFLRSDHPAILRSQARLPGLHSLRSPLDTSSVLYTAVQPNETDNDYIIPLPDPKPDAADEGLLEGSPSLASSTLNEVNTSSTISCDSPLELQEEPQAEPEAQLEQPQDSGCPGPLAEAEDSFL
Chain of VEGFR2, unphosphorylated (P35968 20-1356): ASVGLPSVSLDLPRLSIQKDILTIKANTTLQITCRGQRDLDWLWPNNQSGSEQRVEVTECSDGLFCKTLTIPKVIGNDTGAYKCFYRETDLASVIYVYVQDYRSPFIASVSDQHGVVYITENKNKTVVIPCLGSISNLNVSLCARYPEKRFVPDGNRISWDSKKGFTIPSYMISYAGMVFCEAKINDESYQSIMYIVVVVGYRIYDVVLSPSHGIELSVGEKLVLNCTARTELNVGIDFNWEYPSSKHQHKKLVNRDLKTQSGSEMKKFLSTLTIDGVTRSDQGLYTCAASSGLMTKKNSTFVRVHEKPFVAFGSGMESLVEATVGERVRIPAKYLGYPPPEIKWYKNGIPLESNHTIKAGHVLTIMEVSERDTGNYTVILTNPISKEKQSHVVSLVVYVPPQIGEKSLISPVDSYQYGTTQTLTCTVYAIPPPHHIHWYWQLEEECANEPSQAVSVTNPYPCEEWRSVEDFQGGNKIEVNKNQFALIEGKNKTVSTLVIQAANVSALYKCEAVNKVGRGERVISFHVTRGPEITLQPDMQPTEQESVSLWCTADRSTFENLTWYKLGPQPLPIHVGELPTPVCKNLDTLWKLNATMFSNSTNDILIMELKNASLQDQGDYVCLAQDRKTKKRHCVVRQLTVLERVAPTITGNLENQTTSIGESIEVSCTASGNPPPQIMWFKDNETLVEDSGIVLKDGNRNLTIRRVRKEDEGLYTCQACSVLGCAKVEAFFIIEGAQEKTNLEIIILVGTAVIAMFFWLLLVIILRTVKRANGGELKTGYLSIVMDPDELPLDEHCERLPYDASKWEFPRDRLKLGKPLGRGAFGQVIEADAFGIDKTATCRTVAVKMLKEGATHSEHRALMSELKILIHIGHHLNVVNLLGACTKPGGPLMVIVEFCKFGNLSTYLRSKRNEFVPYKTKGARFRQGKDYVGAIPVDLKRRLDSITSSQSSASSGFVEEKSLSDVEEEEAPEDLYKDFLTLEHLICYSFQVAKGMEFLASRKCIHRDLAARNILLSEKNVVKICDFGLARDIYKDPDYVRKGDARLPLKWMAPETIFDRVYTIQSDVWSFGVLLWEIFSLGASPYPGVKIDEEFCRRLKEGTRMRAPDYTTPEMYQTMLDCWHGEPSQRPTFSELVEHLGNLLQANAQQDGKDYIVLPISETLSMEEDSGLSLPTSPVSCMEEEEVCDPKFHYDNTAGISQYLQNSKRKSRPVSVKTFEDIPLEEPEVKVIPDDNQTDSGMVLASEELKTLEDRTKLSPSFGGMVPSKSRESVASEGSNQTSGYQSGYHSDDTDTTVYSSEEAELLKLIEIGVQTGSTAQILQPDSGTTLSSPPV

Row | Structure (SMILES) | IC50 [1] [nM] | IC50 (PDGFRβ) [nM] | IC50 (VEGFR2, unphosphorylated) [nM]
1 | Cc1cc(C(=O)NCCN2CCCC23CCCC3)sc1NC(=O)c1cnn2cc(-c3cnn(C)c3)sc12 [Example 196, N-(5-((2-(1-azaspiro[4.4]nonan-1-yl)ethyl)carbamoyl)-3-methylthiophen-2-yl)-2-(1-methyl-1H-pyrazol-4-yl)pyrazolo[5,1-b]thiazole-7-carboxamide] | 1.4 | 85.8 | > 7500
2 | Cc1ncc(NC(=O)CN2C[C@H](C)O[C@@H](C)C2)cc1NC(=O)c1cnn2cc(-c3ccc[nH]c3=O)sc12 (relative stereo) [Example 370, N-(5-(2-(trans-2,6-dimethylmorpholino)acetamido)-2-methylpyridin-3-yl)-2-(2-oxo-1,2-dihydropyridin-3-yl)pyrazolo[5,1-b]thiazole-7-carboxamide] | 1 | 544 | > 7500
